From PMC10182713 (South African Journal of Botany, 2023)
≈ marks a conversion by molar mass, not a printed value.

Legend:
[1] = test system: pathogenic and non-pathogenic Mycobacterium strains; assay type: cell-based
[2] = test system: M. bovis (ATCC 27290); experiment: microbe, parasite or virus in culture; assay type: cell-based, Mycobacterium bovis; settings: for MIC: Mycobacterium tuberculosis variant bovis, ATCC27290, read-out: MIC M. bovis
[3] = test system: M. tuberculosis H37RV (ATCC 27294); experiment: microbe, parasite or virus in culture; assay type: cell-based, Mycobacterium tuberculosis; settings: for MIC: Mycobacterium tuberculosis, ATCC27294|H37RV, read-out: MIC M. tb H37Rv
[4] = test system: Mycobacterium smegmatis (ATCC 1441); experiment: microbe, parasite or virus in culture; assay type: cell-based; settings: for MIC: Mycolicibacterium smegmatis, ATCC1441, 24 h, read-out: MIC M. smegmatis
[5] = test system: C3A cells; assay type: cell-based
[6] = test system: Vero monkey kidney cells; assay type: cell-based
[7] = test system: Caco-2 cells; assay type: cell-based, human
[8] = test system: M. fortuitum (ATCC 6841); experiment: microbe, parasite or virus in culture; assay type: cell-based, Mycobacterium fortuitum; settings: Mycolicibacterium fortuitum, ATCC6841, 24 h, read-out: MIC M. fortuitum
[9] = test system: HepG2 liver cells; settings: human
[10] = in vitro; settings: human, Cell viability of HepG2 cells treated with the toxicant alone
[11] = test system: M. aurum (NCTC 10437); experiment: microbe, parasite or virus in culture; assay type: cell-based, Mycobacterium aurum; settings: Mycolicibacterium aurum, NCTC10437, read-out: MIC M. aurum
[12] = test system: Mycobacterium; settings: antimycobacterial activity; ref Boonphong et al., 2007; cited from earlier work
[13] = test system: HepG2 cells; settings: tert-butyl hyperoxide induced-toxicity on HepG2 cells; ref Kim et al. (2011); cited from earlier work

4′-methoxykaempferol
Antimycobacterial activity in words [1]: weak
MIC M. bovis [2]: 0.125 mg/mL
MIC M. tb H37Rv [3]: 0.125 mg/mL
MIC M. smegmatis [4]: 0.250 mg/mL

COc1ccc(C2CC(=O)c3c(OC)cc(OC)cc3O2)cc1 (stereo not drawn) [5,7,4′-trimethoxy flavanone]
Selectivity index LC50/MIC M. bovis [5]: 3.174
Selectivity index LC50/MIC M. fortuitum [5]: 3.174
Selectivity index LC50/MIC M. smegmatis [5]: 3.174
Selectivity index LC50/MIC M. tb H37RV [5]: 6.452
Selectivity index LC50/MIC M. bovis [6]: 3.206
Selectivity index LC50/MIC M. fortuitum [6]: 3.206
Selectivity index LC50/MIC M. smegmatis [6]: 3.206
Antimycobacterial activity in words [1]: good activity
Selectivity index LC50/MIC M. bovis [7]: 3.175
Selectivity index LC50/MIC M. fortuitum [7]: 3.175
Selectivity index LC50/MIC M. smegmatis [7]: 3.175
Selectivity index LC50/MIC M. tb H37RV [7]: 6.452
MIC [2]: 63 µg/mL (≈ 200 µM)
MIC [3]: 31 µg/mL (≈ 98.6 µM)
MIC [8]: 63 µg/mL (≈ 200 µM)
Percentage hepatoprotective activity (cell viability) [9]: 85.674±0.0618%
MIC [4]: 63 µg/mL (≈ 200 µM)

COc1ccc(-c2oc3cc(OC)cc(O)c3c(=O)c2OC)cc1 [5‑hydroxy-3,7,4′-trimethoxyflavone]
Selectivity index LC50/MIC M. bovis [5]: 3.174
Selectivity index LC50/MIC M. fortuitum [5]: 3.174
Selectivity index LC50/MIC M. smegmatis [5]: 3.174
Selectivity index LC50/MIC M. tb H37RV [5]: 3.174
Selectivity index LC50/MIC M. fortuitum [6]: 3.127
Selectivity index LC50/MIC M. smegmatis [6]: 3.127
Selectivity index LC50/MIC M. tb H37RV [6]: 3.127
Antimycobacterial activity in words [1]: good activity
Selectivity index LC50/MIC M. bovis [7]: 2.524
Selectivity index LC50/MIC M. fortuitum [7]: 2.524
Selectivity index LC50/MIC M. smegmatis [7]: 2.524
Selectivity index LC50/MIC M. tb H37RV [7]: 2.524
MIC [2]: 63 µg/mL (≈ 192 µM)
MIC [3]: 63 µg/mL (≈ 192 µM)
MIC [8]: 63 µg/mL (≈ 192 µM)
Percentage hepatoprotective activity (cell viability) [9]: 89.277±0.023%
MIC [4]: 63 µg/mL (≈ 192 µM)

CO[C@H]1/C=C/O[C@@]2(C)Oc3c(C)c(O)c4c(O)c(c(/C=N/N5CCN(C)CC5)c(O)c4c3C2=O)NC(=O)/C(C)=C\C=C\[C@H](C)[C@H](O)[C@@H](C)[C@@H](O)[C@@H](C)[C@H](OC(C)=O)[C@@H]1C [Rif (+ve con), rifampicin, reference compound]
Selectivity index LC50/MIC M. aurum [6]: 23.500
Selectivity index LC50/MIC M. bovis [6]: 23.500
Selectivity index LC50/MIC M. fortuitum [6]: 1.492
Selectivity index LC50/MIC M. smegmatis [6]: 24.103
Selectivity index LC50/MIC M. tb H37RV [6]: >100
viability [10]: 65%
MIC [2]: 4 µg/mL (≈ 4.86 µM)
MIC [3]: 0.24 µg/mL (≈ 0.292 µM)
MIC [11]: 4 µg/mL (≈ 4.86 µM)
MIC [8]: 63 µg/mL (≈ 76.6 µM)
Cell viability of HepG2 cells treated with the toxicant alone [9]: 65.27±0.184%
MIC [4]: 3.9 µg/mL (≈ 4.74 µM)

[H]/N=C(/N)N[C@H]1[C@H](O)[C@@H](O)[C@H](O[C@@H]2O[C@@H](C)[C@](O)(C=O)[C@H]2O[C@@H]2O[C@@H](CO)[C@H](O)[C@@H](O)[C@@H]2NC)[C@@H](N/C(N)=N\[H])[C@@H]1O [Strep (+ve con), streptomycin, reference compound]
MIC [2]: 4 µg/mL (≈ 6.88 µM)
MIC [3]: 0.24 µg/mL (≈ 0.413 µM)
MIC [11]: 4 µg/mL (≈ 6.88 µM)
MIC [8]: > 1000 µg/mL
MIC [4]: 3.9 µg/mL (≈ 6.71 µM)

COc1cc2oc(-c3ccc(O)cc3O)c(CC=C(C)C)c(=O)c2c(O)c1/C=C/C(C)C [artocarpin]
MIC [12]: 3 µg/mL (≈ 6.87 µM)

O=c1c(O[C@@H]2O[C@@H](CO)[C@H](O)[C@H]2O)c(-c2ccc(O)c(O)c2)oc2cc(O)cc(O)c12 [avicularin]
Hepatoprotective activity in words [13]: significant hepatoprotective activity

O=c1c(O[C@@H]2O[C@H](CO)[C@@H](O)[C@H](O)[C@H]2O)c(-c2ccc(O)c(O)c2)oc2cc(O)cc(O)c12 [hirsutrin]
Hepatoprotective activity in words [13]: significant hepatoprotective activity

O=c1c(O)c(-c2ccc(O)c(O)c2)oc2cc(O)cc(O)c12 [quercetin]
Hepatoprotective activity in words [13]: significant hepatoprotective activity

chaplashin
MIC [12]: 3 µg/mL
